Drawing on US20100179089A1, “Compositions and Methods to Manage the Inflammatory Basis of Chronic Disease Conditions and Maintain an Optimal Immune Response in Elderly” (priority 2009, published 2010), this text covers Protein synthesis, Muscle protein synthesis and Muscle protein breakdown for 2 compounds.

The subject of assay [1] is protein synthesis. The experiment in a line: Amino acid supplementation and protein synthesis in normal, inflamed and inflamed with DHA conditions (FIG. 4). Particulars: conditions of inflammation (FIG. 4). The source says:
Given the observed changes in protein intake and observed changes in protein synthesis in aging, it is believed that a hyperinflammed state compromises protein synthesis and further accentuates chronic disease related to arginine deficiency and malnutrition.
Omega-3 fatty acids, including but not limited to alpha-linolenic acid (ALA), eicosapentaenoic (EPA) and docosahexaenoic acids (DHA); omega-6 linoleic acid; and borage oil (also an omega-6 fatty acid) are currently used in different diets with the intention to improve immune dysfunction. […] Used with omega-3 fatty acids, arginine is believed to be more available to provide a normal response under conditions of inflammation. Dietary intake of omega-3 fatty acids by the elderly may favorably shift the balance in the production of PGE2, via […] and downregulation of arginase (as shown in FIG. 6) and, consequently, help avoid arginine deficiency and thereby improve or maintain optimal immune system function. […] The products of omega-6 fatty acid metabolism are believed to contribute to arginine deficiency and inflammation in this way. There have been numerous studies showing the benefits of dietary omega-3 fatty acids over omega-6 fatty acids in various physiologic conditions including coronary artery disease, chronic inflammatory conditions such as cancer, and other inflammatory mediated states.

Assay [2] has as its system muscle protein synthesis. The following applies: pigs with a sepsis-like syndrome, arginine supplementation; cited from earlier work.
The subject of assay [3] is muscle protein synthesis. Particulars: cited from earlier work.

Read-outs that look alike come from different tables or passages of the source.

With `CC/C=C\C/C=C\C/C=C\C/C=C\C/C=C\C/C=C\CCC(=O)O` [DHA, docosahexaenoic acids], the Protein synthesis entry in assay [1] is recorded as “improves the efficacy of arginine delivery in promoting protein synthesis”.
Take `N=C(N)NCCC[C@H](N)C(=O)O` [arginine]: the Muscle protein synthesis result in assay [2] was “improved”; in assay [3] (anesthetized rabbits, infusion), “stimulated”. Moreover, the Muscle protein breakdown entry in assay [3] (post-absorptive rabbits, arginine added to the amino acid solution) was “unchanged”.
